Data as given in US6936623B2, “Pyrano[2,3-C]imidazo[-1,2-A]pyridine derivatives for the treatment of gastrointestinal disorders” (Altana Pharma AG, priority 2000, dated 2005).

Tested on: pentagastrin-stimulated acid secretion of the perfused rat stomach
Settings: perfused rat stomach in vivo, dose 1 μmol/kg i.v.
Experimental: The pH (pH meter 632, glass electrode EA 147; φ=5 mm, Metrohm) and, by titration with a freshly prepared 0.01 N NaOH solution to pH 7 (Dosimat 665 Metrohm), the secreted HCl were determined in the effluent in each case collected at an interval of 15 minutes.
The gastric secretion was stimulated by continuous infusion of 1 μg/kg (=1.65 ml/h) of i.v. pentagastrin (left femoral vein) about 30 min after the end of the operation (i.e. after determination of 2 preliminary fractions).
The body temperature of the animals was kept at a constant 37.8-38° C. by infrared irradiation and heat pads (automatic, stepless control by means of a rectal temperature sensor).

Structure (SMILES)	Inhibition of acid secretion
CCO[C@@H]1c2ccn3c(C)c(C)nc3c2O[C@H](c2ccccc2)[C@@H]1O [Example 3, (7R,8R,9R)-2,3-Dimethyl-8-hydroxy-7-ethoxy-9-phenyl-7H-8,9-dihydro-pyrano[2,3-c]imidazo-[1,2-a]pyridine]	100%
COCCO[C@@H]1c2ccn3c(C)c(C)nc3c2O[C@H](c2ccccc2)[C@@H]1O [Example 1, (7R,8R,9R)-2,3-Dimethyl-8-hydroxy-7-(2-methoxyethoxy)-9-phenyl-7H-8,9-dihydro-pyrano-[2,3-c]imidazo[1,2-a]pyridine]	100%
